Assay results reported in US12185723B2, “Herbicidally active 3-phenylisoxazoline-5-carboxamides of s-containing cyclopentenylcarboxylic esters” (Bayer Aktiengesellschaft, priority 2019, dated 2025).

How the values were obtained:
Type in all cases: in vivo
Amaranthus retroflexus = assay: Post-emergence herbicidal action against AMARE
Method in brief: (§1)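 Weeds sown in sandy loam, greenhouse-grown 2 to 3 weeks and treated at the one-leaf stage. Compounds formulated as WP or EC were sprayed onto green parts as aqueous suspension/emulsion with 0.5% additive at 600 l/ha water. Activity rated visually after about 3 weeks versus untreated controls (100% = plants dead, 0% = like control).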

Matricaria inodora = assay: Post-emergence herbicidal action against MATIN
Method in brief: as §1

Pharbitis purpurea = assay: Post-emergence herbicidal action against PHBPU; details: 80 g a.i./ha
Method in brief: as §1

Avena fatua = assay: Post-emergence herbicidal action against AVEFA; details: visual rating about 3 weeks after treatment
Method in brief: as §1

Polygonum convolvulus = assay: Post-emergence herbicidal action against POLCO
Method in brief: as §1

Viola tricolor = assay: Post-emergence herbicidal action against VIOTR
Description: Post-Emergence Herbicidal Action Against Harmful Plants and Crop Plant Compatibility Seeds of monocotyledonous and dicotyledonous weeds and crop plants are placed in sandy loam in plastic or wood-fibre pots, covered with soil and cultivated in a greenhouse under controlled growth conditions. 2 to 3 weeks after sowing, the test plants are treated at the one-leaf stage. The compounds of the invention, formulated in the form of wettable powders (WP) or as emulsion concentrates (EC), are then sprayed onto the green parts of the plants as aqueous suspension or emulsion with addition of 0.5% additive at a water application rate of 600 l/ha (converted). After the test plants have been kept in the greenhouse under optimum growth conditions for about 3 weeks, the activity of the preparations is rated visually in comparison to untreated controls. For example, 100% activity=the plants have died, 0% activity=like control plants. [table]

Echinochloa crus-galli = assay: Post-emergence herbicidal action against ECHCG; details: visual rating about 3 weeks after treatment
Method in brief: as §1

Setaria viridis = assay: Post-emergence herbicidal action against SETVI; details: visual rating about 3 weeks after treatment
Method in brief: as §1

Veronica persica = assay: Post-emergence herbicidal action against VERPE
Method in brief: as §1

Stellaria media = assay: Post-emergence herbicidal action against STEME
Method in brief: as §1

Alopecurus myosuroides = assay: Post-emergence herbicidal action against ALOMY; details: visual rating about 3 weeks after treatment
Method in brief: as §1

DIGSA = assay: Post-emergence herbicidal action against DIGSA; details: visual rating about 3 weeks after treatment
Method in brief: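 Greenhouse-grown plants sprayed at one-leaf stage (2–3 weeks after sowing) with WP or EC formulations as aqueous suspension/emulsion plus 0.5% additive, 600 l/ha water. Activity rated visually about 3 weeks later versus untreated controls, 100% = plants dead, 0% = like controls.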

Hordeum murinum = assay: Post-emergence herbicidal action against HORMU
Method in brief: as §1

Abutilon theophrasti = assay: Post-emergence herbicidal action against ABUTH; details: visual rating about 3 weeks after treatment
Method in brief: as §1

Lolium rigidum = assay: Post-emergence herbicidal action against LOLRI; details: visual rating about 3 weeks after treatment
Method in brief: as §1

[1] = 80 g a.i./ha, visual rating about 3 weeks after treatment

SMILES | Herbicidal action against [%] AMARE (Amaranthus retroflexus; 20 g a.i./ha) | Herbicidal action against [%] AMARE (Amaranthus retroflexus; [1]) | Herbicidal action against [%] MATIN (Matricaria inodora; [1]) | Herbicidal action against [%] PHBPU (Pharbitis purpurea) | Herbicidal action against [%] AVEFA (Avena fatua; 20 g a.i./ha) | Herbicidal action against [%] AVEFA (Avena fatua; 80 g a.i./ha) | Herbicidal action against [%] POLCO (Polygonum convolvulus; 20 g a.i./ha) | Herbicidal action against [%] POLCO (Polygonum convolvulus; 80 g a.i./ha) | Herbicidal action against [%] VIOTR (Viola tricolor; 80 g a.i./ha) | Herbicidal action against [%] ECHCG (Echinochloa crus-galli; 20 g a.i./ha) | Herbicidal action against [%] ECHCG (Echinochloa crus-galli; 80 g a.i./ha) | Herbicidal action against [%] SETVI (Setaria viridis; 20 g a.i./ha) | Herbicidal action against [%] SETVI (Setaria viridis; 80 g a.i./ha) | Herbicidal action against [%] VERPE (Veronica persica; 20 g a.i./ha) | Herbicidal action against [%] VERPE (Veronica persica; 80 g a.i./ha) | Herbicidal action against [%] STEME (Stellaria media; 80 g a.i./ha) | Herbicidal action against [%] ALOMY (Alopecurus myosuroides; 20 g a.i./ha) | Herbicidal action against [%] ALOMY (Alopecurus myosuroides; 80 g a.i./ha) | Herbicidal action against [%] DIGSA (DIGSA; 20 g a.i./ha) | Herbicidal action against [%] DIGSA (DIGSA; 80 g a.i./ha) | further results
CSCCOC(=O)C1C=CC(NC(=O)C2(C(F)(F)F)CC(c3cc(F)cc(C#N)c3)=NO2)C1 (mixture of isomers) [Example I-38] | 80% | 80% | 80% | 90% | 90% | 90% | 90% | 90% | 80% | 90% | 90% | 90% | 90% | 90% | 90% | 100% | 80% | 90% | 90% | 90% | Herbicidal action against [%] VIOTR (Viola tricolor; 20 g a.i./ha): 100%; Herbicidal action against [%] STEME (Stellaria media; 20 g a.i./ha): 100%; Herbicidal action against [%] HORMU (Hordeum murinum; 20 g a.i./ha): 80%; Herbicidal action against [%] HORMU (Hordeum murinum; 80 g a.i./ha): 80%; Herbicidal action against [%] ABUTH (Abutilon theophrasti; 20 g a.i./ha): 90%; Herbicidal action against [%] ABUTH (Abutilon theophrasti; 80 g a.i./ha): 90%; Herbicidal action against [%] LOLRI (Lolium rigidum; 20 g a.i./ha): 90%; Herbicidal action against [%] LOLRI (Lolium rigidum; 80 g a.i./ha): 90%
CSCCOC(=O)C1C=CC(NC(=O)C2(C(F)(F)F)CC(c3cccc(C#N)c3)=NO2)C1 (mixture of isomers) [Example I-44] | 80% | 80% | 80% | 80% | 80% | 90% | 80% | 90% | 90% | 80% | 80% | 80% | 90% | 90% | 90% | 90% | 90% | 90% | 90% | 90% | Herbicidal action against [%] HORMU (Hordeum murinum; 20 g a.i./ha): 80%; Herbicidal action against [%] HORMU (Hordeum murinum; 80 g a.i./ha): 80%; Herbicidal action against [%] ABUTH (Abutilon theophrasti; 80 g a.i./ha): 80%; Herbicidal action against [%] LOLRI (Lolium rigidum; 20 g a.i./ha): 90%; Herbicidal action against [%] LOLRI (Lolium rigidum; 80 g a.i./ha): 90%
CSCCOC(=O)C1C=CC(NC(=O)C2(CCl)CC(c3cc(F)cc(F)c3)=NO2)C1 (stereo not drawn) [Example I-31] | 80% | 80% | 80% | 90% | 90% | 90% | 90% | 90% | 80% | 90% | 90% | 80% | 90% | 80% | 80% | 80% | 90% | 90% | 90% | 90% | Herbicidal action against [%] MATIN (Matricaria inodora; 20 g a.i./ha): 80%; Herbicidal action against [%] VIOTR (Viola tricolor; 20 g a.i./ha): 80%; Herbicidal action against [%] STEME (Stellaria media; 20 g a.i./ha): 80%; Herbicidal action against [%] HORMU (Hordeum murinum; 20 g a.i./ha): 90%; Herbicidal action against [%] HORMU (Hordeum murinum; 80 g a.i./ha): 90%; Herbicidal action against [%] ABUTH (Abutilon theophrasti; 80 g a.i./ha): 80%; Herbicidal action against [%] LOLRI (Lolium rigidum; 20 g a.i./ha): 90%; Herbicidal action against [%] LOLRI (Lolium rigidum; 80 g a.i./ha): 90%
